“And” between values parts separate entries of the source, which are not always exact repeats. Equal entries are not always repeated.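 A five-concentration, 48-hour dose response in 96-well plates underlies each endpoint, interpolated linearly between surrounding concentrations. Abbreviation: GI50, concentration required for 50% inhibition of growth. TGI denotes the concentration required for complete inhibition of growth.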
Legend:
Assay in all cases: NCI-60 cell line screen, 48 h
[1] = test system: NCI-H23 lung
[2] = test system: M14 melanoma
[3] = test system: HCT-116 colon
[4] = test system: UACC-62 melanoma
[5] = test system: HOP-62 NSCLC
[6] = test system: OVCAR-5 ovarian
[7] = test system: SK-MEL-5 melanoma
[8] = test system: HOP-92 NSCLC
[9] = test system: IGROV1 ovarian
[10] = test system: BT-549 breast

Row | Structure (SMILES) | GI50 [1] | TGI [1] [µM] | GI50 [2] | TGI [2] [µM] | GI50 [3] | TGI [3] [µM] | GI50 [4] [µM] | TGI [4] [µM] | GI50 [5] [µM] | TGI [5] | GI50 [6] [µM] | TGI [6] [µM] | GI50 [7] | TGI [7] [µM] | GI50 [8] | TGI [8] | GI50 [9] | TGI [9] [µM] | GI50 [10] | TGI [10]
1 | COC(=O)[C@@H](C)C[C@H](Cc1ccccc1)NC(=O)c1csc(CC[C@H](C(C)C)N(C)C(=O)[C@@H](NC(=O)[C@H]2CCCCN2C)C(C)C)n1 | 0.882 µM | > 33.3 | 0.262 µM | 1.52 | 0.235 µM | > 14.8 | 0.14 | > 33.3 | 0.536 | > 33.3 µM | 1.26 | > 33.3 | 0.0981 µM | 0.747 | 0.582 µM | > 26.9 µM | 0.291 µM | > 33.3 | 0.179 µM | 3.81 µM
2 | Nc1ccc(C2=NN(c3ccccc3)C(c3ccc(Cl)cc3)C2)cc1 (stereo not given) | 2.12 µM | 5.09 | 2.35 µM | 5.34 | 1.64 µM | 3.01 | 3.12 | 12.9 | 2.01 | 5.05 µM | 10.6 | 24.8 | 2.71 µM | 8.48 | 2.61 µM | 17.3 µM | 2.89 µM | 8.15 | 2.21 µM | 5.32 µM
3 | C=C1C(=O)O[C@@H]2C[C@@H](C)[C@@H]3C=CC(=O)[C@@]3(C)[C@@H](OC(=O)CC(=O)O[C@H]3[C@@H]4C(=C)C(=O)O[C@@H]4C[C@@H](C)[C@@H]4C=CC(=O)[C@]43C)[C@H]12 | – | 0.123 | – | 0.0845 | – | 0.0398 | – | 0.0716 | – | 1.18 µM | – | 0.39 | – | 0.215 | – | 0.0746 µM | – | 0.595 | – | 0.161 µM
4 | O=c1c(Oc2ccc(F)cc2F)cc2cnc(NC3CCOCC3)nc2n1CCCO | > 25 µM | > 25 | > 25 µM | > 25 | > 25 µM | > 25 | > 25 | > 25 | > 25 | > 25 µM | > 25 | > 25 | > 25 µM | > 25 | > 25 µM | > 25 µM | > 25 µM | > 25 | > 25 µM | > 25 µM
5 | COc1cc(C#Cc2ccc(=O)oc2C#Cc2ccccc2)cc(OC)c1OC | 2.59 µM | 7.63 | 2.38 µM | 5.98 | 2.04 µM | 4.57 | 3.89 | 9.18 | 12.2 | 30.9 µM | 5.74 | 12.1 | 2.02 µM | 4.77 | 5.13 µM | 12.4 µM | 2.18 µM | 5.7 | 1.97 µM | 4.21 µM
6 | CC(=O)O[C@H]1CC[C@@]2(C)C(=CC[C@H]3[C@@H]4CC[C@H](c5cc(C(F)(F)F)n(C(C)=O)n5)[C@@]4(C)CC[C@@H]32)C1 | – | 28.6 | – | 22.1 | – | 15.8 | – | 24.5 | – | 21.2 µM | – | 22.1 | – | 15.3 | – | 6.43 µM | – | 16.4 | – | 25.8 µM
7 | S=C(Nc1ccc(Br)cc1)Nc1ccc(Br)cc1 | 3.47 µM | > 100 | 8.3 µM | > 100 | 4.21 µM | > 100 | 3.52 | > 100 | 83.9 | > 100 µM | > 100 | > 100 | 5.4 µM | > 100 | 2.72 µM | 9.13 µM | 7.41 µM | > 100 | 44.2 µM | > 100 µM
8 | Cc1ccc(S(=O)(=O)NC(=O)C2C(=O)CC3(CCCCC3)CC2=O)cc1 | – | > 100 | – | > 100 | – | 74.4 | – | 83.8 | – | > 100 µM | – | > 100 | – | 67 | – | 45.6 µM | – | 71.1 | – | 75 µM
9 | CCC12CCCN(Cc3ccccc3)C1c1c([nH]c3ccccc13)C(C(=O)OC)C2 (stereo not given) | – | > 10 | – | > 10 | – | > 10 | – | > 10 | – | > 10 µM | – | > 10 | – | > 10 | – | > 10 µM | – | > 10 | – | > 10 µM
10 | COC(=O)CCc1c[nH]c2ccc(N(CCCl)CCCl)cc12 | 1.25 µM | 39.7 | 1.73 µM | 11.5 | 2.18 µM | > 58.9 | 1.72 | 16.6 | 1.04 | 16.5 µM | 5.32 | 46.1 | 2.39 µM | 14.8 | 2.24 µM | 28.6 µM | 6.45 µM | > 57.7 | 8.52 µM | 41.5 µM
11 | CN[C@H]1C=C[C@@H]2/C=C(C)/C=C/[C@@H](C)[C@H]([C@H](C)[C@H](O)[C@@H](C)NC(C)=O)OC(=O)/C=C/C=C(C)\C=C\[C@]2(C)C1 | 0.0687 µM and 0.0376 µM | > 49 | < 0.001 µM and 0.0049 µM | 7.24 | < 0.001 µM and 0.0049 µM | 40.4 | 0.022 | 19.7 | 0.00765 | > 49 µM | 10.3 | > 49 | 0.0049 µM | 0.552 | < 0.001 µM and 0.0049 µM | 0.0661 µM and 0.0222 µM | 0.0049 µM | > 49 | 0.0049 µM | > 49 µM
12 | CCC[CH2][Sn]([CH2]CCC)([CH2]CCC)[O]c1ccc(Cl)cc1Cl | 0.109 µM | 0.321 | 0.143 µM | 0.284 | 0.0952 µM | 0.231 | 0.162 | 0.357 | 0.146 | 0.294 µM | 0.14 | 0.298 | 0.138 µM | 0.27 | 0.0733 µM | 0.384 µM | 0.083 µM | 0.223 | 0.154 µM | 0.315 µM
13 | CCN(Cc1cccc(F)c1)c1ccc(CO)c(Cl)c1 | 10.8 µM | 74.4 | 19.2 µM | 66.8 | 0.0674 µM | 5.85 | 0.0741 | 0.649 | 1.02 | > 37.6 µM | 0.148 | 0.605 | 3.86 µM | 20.4 | 1.86 µM | 20.8 µM | 0.0779 µM | 1.15 | 11 µM | 28.3 µM
14 | FC(F)(F)c1nc2nc(Cl)c(Cl)nc2n1CCCN1CCOCC1 | – | > 100 | – | > 100 | – | > 100 | – | > 100 | – | > 100 µM | – | > 100 | – | > 100 | – | > 100 µM | – | > 100 | – | > 100 µM
15 | OCc1ccc(-c2ccc(-c3ccc(CO)o3)[se]2)o1 | > 100 µM | > 100 | 57.8 µM | > 100 | 69.4 µM | > 100 | 8.72 | > 100 | > 80.4 | > 100 µM | 0.629 | > 100 | 34.8 µM | > 100 | 48.2 µM | > 100 µM | 9.28 µM | > 100 | 46.4 µM | > 100 µM
16 | CCOC(=O)c1sc(-c2ccc(OS(=O)(=O)c3ccc(Br)s3)c(C=O)c2)nc1C | 3.37 µM | 13.7 | 3.22 µM | 11.3 | 1.89 µM | 3.95 | 2.21 | 5.97 | 3.3 | 12.5 µM | 10 | 26.3 | 1.74 µM | 3.18 | 2.08 µM | 6.87 µM | 3.31 µM | 12.7 | 2.51 µM | 6.57 µM
17 | CO[C@H]1/C=C/O[C@@]2(C)Oc3c(C)c(O)c4c(c3C2=O)C(=O)C(/C=N/N(c2ccccc2)c2ccccc2)=C(NC(=O)/C(C)=C\C=C\[C@H](C)[C@H](O)[C@@H](C)[C@@H](O)[C@@H](C)[C@H](OC(C)=O)[C@@H]1C)C4=O | 2.44 µM | 5.1 | 1.79 µM | 3.49 | 1.47 µM | 2.96 | 1.51 | 2.92 | 1.71 | 3.17 µM | 1.83 | 3.72 | 1.64 µM | 3.02 | 1.88 µM | 3.52 µM | 2.13 µM | 4.23 | 1.61 µM | 3.06 µM
18 | [Cl][Hg][Cl] | 17.2 µM | 40.5 | 16.2 µM | 32.2 | 18 µM | 33.4 | 13.2 | 27.3 | 16.7 | 31.3 µM | 19.3 | 33.6 | 15.4 µM | 30.5 | 17.3 µM | 32.7 µM | 8.2 µM | 24.8 | 20.3 µM | 34.8 µM
19 | CCCNNC(=O)/C=C/c1ccc(CNCCc2c(C)[nH]c3ccccc23)cc1 | 0.0545 µM | 3.5 | 0.023 µM | 1.94 | 0.00887 µM | 0.324 | 0.0237 | 0.0744 | 0.031 | 0.785 µM | 0.0116 | 0.191 | 0.0447 µM | 0.122 | 0.00693 µM | 0.0744 µM | < 0.0339 µM | 0.216 | 0.28 µM | 4.71 µM
20 | CCOc1ccc2nc(SCc3nc4n(n3)S(=O)(=O)c3ccccc3N4C)sc2c1 | 57.7 µM | > 100 | > 100 µM | > 100 | 55.8 µM | > 100 | > 100 | > 100 | 50.8 | > 100 µM | > 100 | > 100 | > 100 µM | > 100 | 20.7 µM | 58.5 µM | > 100 µM | > 100 | 59.3 µM | > 100 µM
21 | O=C1c2ccccc2-c2c1c1c(=O)[nH]c3ccccc3c1n2Cc1ccccc1 | 20.5 µM | 46.8 | > 100 µM | > 100 | 39.9 µM | > 100 | 33.8 | > 100 | 25.6 | 49.1 µM | 49.5 | > 100 | > 100 µM | > 100 | 15.8 µM | 51.5 µM | 29.9 µM | 97.3 | 19.5 µM | 34.7 µM
22 | CC(=O)OCC1OC(n2c(-c3ccc(Cl)cc3)ccc(C#N)c2=S)C(OC(C)=O)C(OC(C)=O)C1OC(C)=O (stereo not given) | 29.3 µM and > 100 µM | > 100 | – | > 100 | – | > 100 | – | > 100 | – | 26.1 µM and > 100 µM | – | > 100 | > 66.1 µM and 32.2 µM | > 100 | 3.96 µM and 22.2 µM | 18.8 µM and > 100 µM | 44.3 µM and > 100 µM | > 100 | 15.9 µM and 35 µM | 38.9 µM and > 100 µM
23 | C=C1C(=O)O[C@H]2[C@H]1CC/C(COC(=O)CSCCSCC(=O)OC/C1=C/CC[C@@]3(C)O[C@H]3[C@H]3OC(=O)C(=C)[C@@H]3CC1)=C\CC[C@@]1(C)O[C@@H]21 | 2.25 µM | 5.38 | 1.99 µM | 4.34 | 1.17 µM | 2.64 | 2.31 | 5.16 | 2.45 | 7.38 µM | 2.04 | 4.58 | 1.88 µM | 3.72 | 1.86 µM | 3.82 µM | 2.35 µM | 5.6 | 1.64 µM | 3.27 µM
24 | CCc1cccc(C)c1NC(=O)c1sc2nc3c(cc2c1N)CCCCC3 | 4.67 µM | > 100 | 2.53 µM | > 100 | 3.58 µM | > 100 | 3.31 | > 100 | 4.34 | > 100 µM | 7.74 | > 100 | 2.97 µM | 13.8 | 13.3 µM | 60.3 µM | 5.13 µM | > 100 | 5.18 µM | 54.9 µM
25 | CC(C(=O)c1ccccc1)C(c1ccccc1)N1CCOCC1 (stereo not given) | – | > 100 | – | > 100 | – | > 100 | – | > 100 | – | > 100 µM | – | > 100 | – | > 100 | – | > 100 µM | – | > 100 | – | > 100 µM
26 | CCCN(CCCC(NC(C)=O)C(=O)NCc1ccccc1)C(=O)N(CCCl)N=O (stereo not given) | – | 22.9 | – | 31.7 | – | 29 | – | 12.6 | – | 19.8 µM | – | 64.6 | – | 37.8 | – | 46.6 µM | – | 57.3 | – | 54.1 µM
